According to paper PMC5351712 (Future Science OA, 2017):
Like-named read-outs stand apart in the source and are kept apart here.

Assays:
[1] = Stability of EPL and EPLT in human plasma under different storage conditions; assay type: physicochemical; settings: n = 6
Protocol: The bench-top stability was performed for each analyte in plasma was determined by three QC levels in six replicates for 8 h at ambient temperature (24 ± 2°C). […] For determination of freeze–thaw stability of the analytes, the spiked plasma samples were frozen for 24 h at -20°C and thawed unassisted at room temperature. When completely thawed, the samples were refrozen for 12–24 h at -20°C. On repeating the freeze−thaw cycle for 2 days, bioanalysis was done on the third day. For short-term stability, frozen plasma samples (-20°C) were kept at room temperature for 4 h before sample processing. Long-term stability was evaluated after storing the frozen plasma samples at -20°C for the whole duration of the study which was almost 30 days. […]

[2] = cited from earlier work; for Time of maximum plasma concentration: after oral administration of EPL
[3] = parameters: method as in ref 7 = [7]; 7 Yoon KH Kim W Park J Kim HJ Determination of enalapril in human plasma by high performance liquid chromatography-electrospray ionization mass spectrometry Bull. Korean Chem. Soc. 25 878 880 2004; settings: after oral intake, mean value; cited from earlier work
[4] = parameters: method as in GC–MS method; settings: single oral 20 mg EPL, 24 healthy adult subjects, mean ± SD; analyte not stated; ref GC–MS method; cited from earlier work
[5] = single oral 20 mg EPL maleate, 12 healthy volunteers; cited from earlier work
[6] = parameters: method as in ref 36 = [36]; 36 Remko M Acidity, lipophilicity, solubility, absorption, and polar surface area of some ACE inhibitors Chem. Pap. 61 133 141 2007; settings: cited from earlier work
[7] = cited from earlier work
[8] = Autosampler stability 24 h at 24°C, QC 3 ng/ml
[9] = Autosampler stability 24 h at 24°C, QC 200 ng/ml
[10] = Autosampler stability 24 h at 24°C, QC 400 ng/ml
[11] = Bench top stability for 8 h, QC 3 ng/ml
[12] = Bench top stability for 8 h, QC 200 ng/ml
[13] = Bench top stability for 8 h, QC 400 ng/ml
[14] = Freeze and thaw stability at -20°C (3 cycles), QC 3 ng/ml
[15] = Freeze and thaw stability at -20°C (3 cycles), QC 200 ng/ml
[16] = Freeze and thaw stability at -20°C (3 cycles), QC 400 ng/ml
[17] = Long-term stability at -20.0°C for 30 days, QC 3 ng/ml
[18] = Long-term stability at -20.0°C for 30 days, QC 200 ng/ml
[19] = Long-term stability at -20.0°C for 30 days, QC 400 ng/ml

Row | Compound | Accuracy after storage [1, 8] [%] | Mean concentration after storage [1, 8] [ng/mL] | Accuracy after storage [1, 9] [%] | Mean concentration after storage [1, 9] [ng/mL] | Accuracy after storage [1, 10] [%] | Mean concentration after storage [1, 10] [ng/mL] | Mean concentration after storage [1, 11] [ng/mL] | Accuracy after storage [1, 12] [%] | Mean concentration after storage [1, 12] [ng/mL] | Accuracy after storage [1, 13] [%] | Mean concentration after storage [1, 13] [ng/mL] | Accuracy after storage [1, 14] [%] | Mean concentration after storage [1, 14] [ng/mL] | Accuracy after storage [1, 15] [%] | Mean concentration after storage [1, 15] [ng/mL] | Accuracy after storage [1, 16] [%] | Mean concentration after storage [1, 16] [ng/mL] | Accuracy after storage [1, 17] [%] | Mean concentration after storage [1, 17] [ng/mL] | Accuracy after storage [1, 18] [%] | other results
1 | CCOC(=O)[C@H](CCc1ccccc1)N[C@@H](C)C(=O)N1CCC[C@H]1C(=O)O [EPL, enalapril] | 92.6446 | 2.7500 | 100.4675 | 200.9350 | 92.6098 | 384.6733 | 2.7350 | 100.3303 | 200.9567 | 99.2485 | 412.2483 | 91.6339 | 2.7200 | 94.7244 | 189.7283 | 93.5010 | 388.3750 | 90.9601 | 2.7000 | 98.6628 | Accuracy after storage [1, 11]: 92.1392%; Mean concentration after storage [1, 18]: 197.6167 ng/mL; Accuracy after storage [1, 19]: 94.6810%; Mean concentration after storage [1, 19]: 393.2767 ng/mL; Plasma level after 4 h ([2]; after 4 h not detected above this level): ≤ 10 ng/mL; Time of maximum plasma concentration [2]: ≤ 1 h; Dose recovered in the urine and feces as EPL or EPLT [2]: approximately 94%; Influence of food on absorption after oral administration [2]: not influenced by the presence of food; Terminal half-life [2]: approximately 2 h; Bioavailability ([2]; healthy subjects, absorbed from the GI tract): 60–70%; Tmax [3]: 0.96 ± 0.36 h; T1/2 [4]: 4.2 ± 1.6 h; Cmax [5]: 152.1 ng/mL; pK a (strongest acidic) [6]: 3.0; polar surface area [6]: 95.9
2 | C[C@H](N[C@@H](CCc1ccccc1)C(=O)O)C(=O)N1CCC[C@H]1C(=O)O [EPLT, enalaprilat] | 98.5516 | 2.6650 | 93.8950 | 187.7900 | 92.5255 | 365.4017 | 2.8833 | 102.2798 | 190.4450 | 98.0713 | 387.3033 | 87.8274 | 2.3750 | 95.3222 | 177.4900 | 88.2284 | 348.4317 | 92.3267 | 2.4967 | 105.6740 | Mean concentration after storage [1, 18]: 196.7650 ng/mL; Accuracy after storage [1, 19]: 99.7772%; Mean concentration after storage [1, 19]: 394.0400 ng/mL; Half-life ([2]; EPLT after administration of EPL): 30 to 35 h; Time of maximum plasma concentration [2]: 3 to 4 h; Cmax [5]: 88.5 ng/mL; AUC0–t [7]: 401 ± 89 ng·h/mL; AUC0–∞ [7]: 420 ± 91 ng·h/mL; Cmax [7]: 47.5 ± 12.4 ng/mL; T1/2 [7]: 6.71 ± 2.22 h; Tmax [7]: 4.20 ± 1.06 h
